Assay results: patent EP0006452A1, “Hypoglycemic phenylpropynylamino benzoic acids, their salts, pharmaceutical compositions containing said compounds and their application” (THE DOW CHEMICAL COMPANY, priority 1978, dated 1980)

Test system: alanine-induced hyperglycemic mice
Assay: Hypoglycemic activity in alanine-induced hyperglycemic mice (serum glucose lowering)
Type: in vivo
Conditions: for percent lowering of serum glucose as compared to controls: fasted male Swiss-Webster mice, 10 m moles/kg L-alanine i.p. 15 min later, serum glucose 60 min after compound, 100% = lowering to fasting glucose level; for ED50: Mus musculus, ip, 1 h, intraperitoneal, lowering of serum glucose in alanine-induced hyperglycemic fasted male Swiss-Webster mice, read-out: ED50 (effective dose)
Procedure: Alanine is the most glucogenic of the amino acids and also stimulates gluconeogensis in normal animals. Animals suffering from diabetes show an exaggerated hyperglycemic response to a protein or amino acid meal, therefore the hyperglycemic state induced by alanine closely parallels the response of a diabetic mammal.
Fifteen minutes later the same mice were injected intraperitoneally with 10 m moles/kg body weight of L-alanine. […] The control consisted of both fasted mice and mice injected with alanine only. The results are expressed as percent lowering of serum glucose from the alanine induced hyperglycemic level to the fasted control glucose level, i.e. lowering to the fasting glucose level is 100% lowering.

[1] = Dosage Level 7.5 mg/kg intraperitoneal
[2] = Dosage Level 15 mg/kg intraperitoneal
[3] = Dosage Level 30 mg/kg intraperitoneal
[4] = Dosage Level 60 mg/kg intraperitoneal

Compound	percent lowering of serum glucose as compared to controls [1] [%]	percent lowering of serum glucose as compared to controls [2] [%]	percent lowering of serum glucose as compared to controls [3] [%]	percent lowering of serum glucose as compared to controls [4] [%]	ED50 [mg/kg]	hypoglycemic activity (in words) (summary of Table I, lowering the amount of glucose in the serum of the test animals)
O=C(O)c1ccc(NCC#Cc2ccc(F)cc2)cc1 [Example 3, 4((3-(4-fluoro)phenyl-2-propynyl)amino)benzoic acid]	2	66	91	172	18	
Cc1ccc(C#CCNc2ccc(C(=O)O)cc2)cc1 [Example 5, 4-((3-(4-Methyl)phenyl-2-propynyl)amino)benzoic acid]	9	15	118	76	21	
O=C([O-])c1ccc(NCC#Cc2ccccc2)cc1.[Na+] [Example 2, 4-((3-phenyl-2-propynyl)-amino)benzoic acid-sodium salt]	44	69	114	139		most active
O=C(O)c1ccc(NCC#Cc2ccccc2)cc1 [Example 1, 4-((3-phenyl-2-propynyl)-amino)benzoic acid]	36	79	98	132	8	
O=C(O)c1ccc(NCC#Cc2ccc(Cl)cc2)cc1 [Example 4, 4-((3-(4-Chloro)phenyl-2-propynyl)amino)-ben zoic acid]				39		
